{"source": "ChEMBL document CHEMBL5584348", "about": "“Exploring Degradation of Intrinsically Disordered Protein Yes-Associated Protein Induced by Proteolysis TArgeting Chimeras” (J Med Chem, 2024)", "key": {"[1]": {"assay": "Toxicity in immunodeficient male NSG mouse xenografted with human Huh-7 cells assessed as change in body weight at 35 mg/kg, ip administered every 3 days for 24 days", "assay_type": "organism-based", "conditions": "in vivo, 576 h, time 24 day"}, "[2]": {"biological_target": "T1, von Hippel-Lindau disease tumor suppressor/Transcriptional coactivator YAP1 (Homo sapiens, UniProt P40337+P46937)", "assay": "PROTAC activity at YAP/VHL in human Huh-7 cells assessed as induction of YAP degradation at 20 uM measured for 24 hrs in presence of MG-132 by Western blot analysis", "assay_type": "cell-based"}, "[3]": {"biological_target": "T1, von Hippel-Lindau disease tumor suppressor/Transcriptional coactivator YAP1", "assay": "PROTAC activity at YAP/VHL in human Huh-7 cells assessed as induction of YAP degradation at 20 uM incubated at 12 hrs by Western blot analysis", "assay_type": "cell-based"}, "[4]": {"biological_target": "T1, von Hippel-Lindau disease tumor suppressor/Transcriptional coactivator YAP1", "assay": "PROTAC activity at YAP/VHL in human NCI-H226 cells assessed as induction of YAP degradation incubated for 48 hrs by Western blot analysis", "assay_type": "cell-based"}, "Huh-7 [5]": {"tested_on": "Huh-7", "assay": "Antitumor activity against human Huh-7 cells xenografted in immunodeficient male NSG mouse assessed as suppression of YAP expression at 35 mg/kg, ip administered every 3 days for 24 days", "assay_type": "functional, organism-based", "conditions": "time 24.0 day"}, "Huh-7 [6]": {"tested_on": "Huh-7", "assay": "Antitumor activity against human Huh-7 cells xenografted in immunodeficient male NSG mouse assessed as tumor growth inhibition at 35 mg/kg, ip administered every 3 days for 24 days in presence of sorafenib", "assay_type": "functional", "conditions": "Huh-7, 576 h, time 24 day, read-out: TGI"}, "AML12": {"tested_on": "AML12", "assay": "Antiproliferative activity against mouse AML12 cells assessed as suppression of cell proliferation incubated for 4 days by CCK-8 assay", "assay_type": "toxicity, cell-based", "conditions": "aml12, 96 h, time 4 day"}, "NCI-H226": {"tested_on": "NCI-H226", "assay": "Antiproliferative activity against human NCI-H226 cells assessed as cell killing at 10 uM incubated for 3 days by CCK-8 assay", "assay_type": "functional, cell-based", "conditions": "time 3.0 day"}, "[7]": {"assay": "Toxicity in immunodeficient male NSG mouse xenografted with human Huh-7 cells assessed as change in ALT level in liver at 35 mg/kg, ip administered every 3 days for 24 days", "assay_type": "organism-based", "conditions": "in vivo, 576 h, time 24 day"}, "[8]": {"biological_target": "T1, von Hippel-Lindau disease tumor suppressor/Transcriptional coactivator YAP1", "assay": "PROTAC activity at YAP/VHL in human Huh-7 cells assessed as induction of YAP degradation at 20 uM incubated at 24 hrs by Western blot analysis", "assay_type": "cell-based"}, "[9]": {"biological_target": "T1, von Hippel-Lindau disease tumor suppressor/Transcriptional coactivator YAP1", "assay": "PROTAC activity at YAP/VHL in human Huh-7 cells assessed as induction of YAP degradation at 20 uM measured for 24 hrs by Western blot analysis relative to control", "assay_type": "cell-based"}, "[10]": {"biological_target": "T1, von Hippel-Lindau disease tumor suppressor/Transcriptional coactivator YAP1", "assay": "PROTAC activity at YAP/VHL in human Huh-7 cells assessed as induction of YAP degradation at 10 uM measured for 24 hrs by Western blot analysis relative to control", "assay_type": "cell-based"}, "[11]": {"biological_target": "T1, von Hippel-Lindau disease tumor suppressor/Transcriptional coactivator YAP1", "assay": "PROTAC activity at YAP/VHL in human NCI-H226 cells assessed as induction of YAP degradation at 20 uM incubated at 48 hrs by Western blot analysis", "assay_type": "cell-based"}, "[12]": {"assay": "Toxicity in immunodeficient male NSG mouse xenografted with human Huh-7 cells assessed as change in triglyceride content in liver at 35 mg/kg, ip administered every 3 days for 24 days", "assay_type": "organism-based", "conditions": "in vivo, 576 h, time 24 day"}, "[13]": {"assay": "Toxicity in immunodeficient male NSG mouse xenografted with human Huh-7 cells assessed as morphological abnormalities in liver at 35 mg/kg, ip administered every 3 days for 24 days by H and E staining based analysis", "assay_type": "organism-based", "conditions": "in vivo, 576 h, time 24 day"}, "[14]": {"biological_target": "T1, von Hippel-Lindau disease tumor suppressor/Transcriptional coactivator YAP1", "assay": "PROTAC activity at YAP/VHL in human Huh-7 cells assessed as induction of YAP degradation at 20 uM measured for 24 hrs in presence of MLN-4924 by Western blot analysis", "assay_type": "cell-based"}}, "note": "Activity calls are given as the source filed them. The rule behind the calls is not given here."}
{"smiles": "COc1cc(-c2cc(-c3ccccc3)nc3c2CC(=O)Nc2ccccc2-3)ccc1OCCOCCOCCC(=O)N[C@H](C(=O)N1C[C@H](O)C[C@H]1C(=O)N[C@@H](C)c1ccc(-c2scnc2C)cc1)C(C)(C)C", "values": [{"measurement": "Activity", "setting": "[1]", "value": "Non-Toxic"}, {"measurement": "Activity", "setting": "[2]", "value": "Active"}, {"measurement": "Activity", "setting": "[3]", "value": 10, "unit": "%"}, {"measurement": "DC50", "setting": "[4]", "value": 8.2, "unit": "µM"}, {"measurement": "Activity", "setting": "Huh-7 [5]", "value": "Active"}, {"measurement": "inhibition in vivo at 35 mg/kg", "setting": "Huh-7 [6]", "value": 93, "unit": "%"}, {"measurement": "Activity", "setting": "AML12", "value": "Non-Toxic"}, {"measurement": "Activity", "setting": "NCI-H226", "value": "inactive"}, {"measurement": "Activity", "setting": "[7]", "value": "Non-Toxic"}, {"measurement": "Activity", "setting": "[8]", "value": 65, "unit": "%"}, {"measurement": "Activity", "setting": "[9]", "value": 78, "unit": "%"}, {"measurement": "Activity", "setting": "[10]", "value": 50, "unit": "%"}, {"measurement": "Activity", "setting": "[11]", "value": 97, "unit": "%"}, {"measurement": "Activity", "setting": "[12]", "value": "Non-Toxic"}, {"measurement": "Activity", "setting": "[13]", "value": "Non-Toxic"}, {"measurement": "Activity", "setting": "[14]", "value": "Active"}]}
